Data published in patent US10149474B2, “Herbicidal compositions comprising isoxaflutole and diflufenican” (BAYER CROPSCIENCE AKTIENGESELLSCHAFT, priority 2015, dated 2018).

Experiments:
Experiment in all cases: Greenhouse trial, herbicidal activity against weed plants pre-emergence
Details in all cases: 3 weeks
POAAN = type: in vivo, Poa annua
Excerpt: (§1) Test Conditions in the Greenhouse Trial, Herbicidal Activity Against Weed Plants Pre-Emergence
(§2) Seeds of monocotyledonous and dicotyledonous weed plants and crop plants are shown in sandy loam soil in wood fibre pots, and covered with soil. The compounds of the invention, formulated in the form of wettable powders (WP) or emulsifiable concentrates (EC), are then applied to the surface of the covering earth, in the form of an aqueous suspension or emulsion, with a water application rate when converted of 600 to 800 I/ha with addition of 0.2% of wetting agent. Following the treatment, the pots are placed in a greenhouse and maintained under good growth conditions for the test plants. Visual scoring of the damage to the trial plants takes place after a trial time of 3 weeks in comparison to untreated controls (herbicidal activity in percent (%): 100% activity=plants have died; 0% activity=as control plants). The results are set out in the tables which follow.
(§3) E^C=Expected value according to Colby (E^C=A+B−A×B/100)
(§4) Δ=Difference (%) between measured value and expected value (%) (measured value minus expected value)
(§5) • measured value E is greater than E^C:→synergism (+Δ) • measured value E is equal to E^C:→additive effect • measured value E is smaller than E^C:→antagonism (−Δ)

POLCO = type: in vivo, Polygonum convolvulus
Excerpt: as §1, §2
POLCO Polygonum convolvulus
as §3, §4, §5

EPHHL = type: in vivo, Euphorbia heterophylla
Excerpt: as §1, §2
EPHHL Euphorbia heterophylla
as §3, §4, §5

ECHCG = type: in vivo, Echinochloa crus galli
Excerpt: as §1, §2
ECHCG Echinochloa crus galli
as §3, §4, §5

AMATA = type: in vivo, Amaranthus tamariscinus
Excerpt: as §1, §2
AMATA Amaranthus tamariscinus
as §3, §4, §5

AMAPA USA12001 = type: in vivo, Amaranthus palmeri
Excerpt: as §1, §2
AMAPA (USA12001) Amaranthus palmeri (against HPPD-resistant species)
as §3, §4, §5

PHBPU = type: in vivo, Pharbitis purpureum
Excerpt: as §1, §2
PHBPU Pharbitis purpureum
as §3, §4, §5

CS(=O)(=O)c1cc(C(F)(F)F)ccc1C(=O)c1cnoc1C1CC1 [IFT, isoxaflutole]
Activity [%] against POAAN (POAAN; rate 6 g/ha): 0% | Activity [%] against POAAN (POAAN; rate 25 g/ha): 0% | Activity [%] against POLCO (POLCO; rate 3 g/ha): 0% | Activity [%] against POLCO (POLCO; rate 13 g/ha): 35% | Activity [%] against EPHHL (EPHHL; rate 6 g/ha): 70% | Activity [%] against ECHCG (ECHCG; rate 3 g/ha): 73% | Activity [%] against AMATA (AMATA; rate 3 g/ha): 10% | Activity [%] against AMAPA USA12001 (AMAPA USA12001; rate 6 g/ha): 0% | Activity [%] against AMAPA USA12001 (AMAPA USA12001; rate 13 g/ha): 15% | Activity [%] against AMAPA USA12001 (AMAPA USA12001; rate 25 g/ha): 55% | Activity [%] against PHBPU (PHBPU; rate 6 g/ha): 20%

O=C(Nc1ccc(F)cc1F)c1cccnc1Oc1cccc(C(F)(F)F)c1 [DFF, diflufenican]
Activity [%] against POAAN (POAAN; rate 9.375 g/ha): 3% | Activity [%] against POAAN (POAAN; rate 18.75 g/ha): 88% | Activity [%] against POLCO (POLCO; rate 37.5 g/ha): 55% | Activity [%] against EPHHL (EPHHL; rate 37.5 g/ha): 30% | Activity [%] against ECHCG (ECHCG; rate 9.375 g/ha): 5% | Activity [%] against ECHCG (ECHCG; rate 18.75 g/ha): 5% | Activity [%] against AMATA (AMATA; rate 9.375 g/ha): 83% | Activity [%] against AMAPA USA12001 (AMAPA USA12001; rate 9.375 g/ha): 20% | Activity [%] against AMAPA USA12001 (AMAPA USA12001; rate 18.75 g/ha): 35% | Activity [%] against AMAPA USA12001 (AMAPA USA12001; rate 37.5 g/ha): 45% | Activity [%] against AMAPA USA12001 (AMAPA USA12001; rate 75 g/ha): 70% | Activity [%] against PHBPU (PHBPU; rate 9.375 g/ha): 0% | Activity [%] against PHBPU (PHBPU; rate 18.75 g/ha): 3% | Activity [%] against PHBPU (PHBPU; rate 37.5 g/ha): 25% | Activity [%] against PHBPU (PHBPU; rate 75 g/ha): 70%
